Entries after “also recorded” stand apart in the source; their conditions may differ.
Test system: CCM3-knockout endothelial cell line
Experiment: Immunostaining of CCM3-knockout endothelial cell line
Type: cell-based, mouse
Method: In some experiments, endothelial cell lines from the lungs of CCM3-flox/flox mice (8-10 weeks old) were immortalized in culture through retroviral expression of polyoma middle T gene^60. […] These cells were then maintained in culture for up to 25 passages without detectable changes in the effects of this CCM3 ablation.
Drugs were added to confluent cells for 48 h before the indicated assays. The final concentrations used were: […] (all from Sigma-Aldrich). As all of these were dissolved in DMSO, control treatment (vehicle) was 0.1% DMSO final concentration, as for drug treatment.
Cells cultured in vitro were fixed and stained as described previously^46.
The following antibodies were used: anti-Pecam (hamster; MAB1398Z, Millipore); anti-b-galactosidase (chicken; ab9361, Abcam); anti-VE-cadherin (rat monoclonal; 550548, BD Biosciences); anti-VE-cadherin (goat; sc-6458, Santa Cruz); anti-active-b-catenin (mouse monoclonal clone 8E7) dephosphorylated on Ser37 and Thr41, Millipore); anti-total-b-catenin (mouse monoclonal; Cell Signaling); anti-S100a4 (rabbit; 07-2274, Millipore); anti-Klf4 (goat; AF3158, R&D); anti-CD44 (rat; 553131, BD Biosciences); anti-ID1 (rabbit; sc-488, Santa Cruz); anti-aSMA (mouse monoclonal; F3777, Sigma); anti-GFP (rabbit; A-6455, Invitrogen); anti-podocalyxin (goat; AF1556, R&D); anti-phospho-histone H3 (rabbit; ab51776, Millipore); anti-CCM3 (rabbit; Eurogentec); anti-p-Smad1 (rabbit; 9516, Cell Signaling); anti-endomucin (rabbit; sc-65495, Santa Cruz); anti-α-tubulin (mouse monoclonal; T9026, Sigma).

SMILES: CSc1ccc(/C=C2/C(C)=C(CC(=O)O)c3cc(F)ccc32)cc1 [sulindac sulfide, (Z)-5-Fluoro-2-methyl-1-[4-(methylthio)benzylidene]indene-3-acetic acid]
- apical distribution of podocalyxin: re-establishes the correct apical distribution
- VE-cadherin at cell-cell contacts (48 h): more localized to cell-cell contacts
- nuclear accumulation of active b-catenin / distribution to adherens junctions (48 h): restored the distribution of active b-catenin to the adherens junctions
- overexpression of progenitor/EndMT marker proteins (Klf4, S100a4, Id1, CD44) (48 h): strongly reduced; also recorded: inhibited

Reference: US20170027896A1, “METHODS AND COMPOSITIONS FOR THE TREATMENT OF VASCULAR MALFORMATION” (IFOM - FONDAZIONE ISTITUTO FIRC DI ONCOLOGIA MOLECOLARE, priority 2014, published 2017)
